From patent publication US8546406B2, “Heterocyclic compounds as metap-2 inhibitors” (Merck Patent GmbH, priority 2009, dated 2013) come the findings set out here.

MetAP-2, sequence (P50579 whole entry, species assumed): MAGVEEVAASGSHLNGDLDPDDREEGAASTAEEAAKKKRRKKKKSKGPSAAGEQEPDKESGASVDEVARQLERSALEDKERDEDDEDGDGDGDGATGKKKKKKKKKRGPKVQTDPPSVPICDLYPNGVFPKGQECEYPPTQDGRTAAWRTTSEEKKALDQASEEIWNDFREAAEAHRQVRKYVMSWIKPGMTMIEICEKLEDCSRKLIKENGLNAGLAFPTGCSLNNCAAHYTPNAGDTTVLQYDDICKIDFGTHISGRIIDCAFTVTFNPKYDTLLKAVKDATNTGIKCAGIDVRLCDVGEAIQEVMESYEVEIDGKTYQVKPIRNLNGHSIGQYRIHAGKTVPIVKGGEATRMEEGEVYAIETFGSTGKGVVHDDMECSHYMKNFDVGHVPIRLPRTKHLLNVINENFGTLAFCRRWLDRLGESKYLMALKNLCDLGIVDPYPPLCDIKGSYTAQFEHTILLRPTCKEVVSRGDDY

One data set addresses MetAP-2 (Homo sapiens, UniProt P50579). Kind of data set: MetAP-2 activity measurement (coupled enzymatic reactions, substrate Met-Arg-Ser, photometric at 450 nm). The class given is biochemical. Conditions: Inhibition of MetAP-2; read-out: IC50 enzyme. The method, then: The MetAP-2 activity is determined by coupling enzymatic reactions. The tripeptide Met-Arg-Ser (MAS) is employed as substrate. The methionine liberated is firstly converted into Metox and H2O2 by L-aminooxidase (AAO). In the second step, the peroxidase (POD) with the aid of the H2O2 catalyses the oxidation of the leukodye dianisidine to dianisidineox, the increase of which is detected photometrically at 450 nm.
MetAP-2 activity can be recorded continuously as kinetics. The reaction scheme illustrates that one mol of dianisidineox is formed per mol of methionene. The MetAP-2 enzyme activity can therefore be calculated directly as Δ absorption per time unit. Qualification of the MetAP-2 activity (mol of Met/time unit) is possible with the aid of the dianisidineox extinction coefficient. The change in extinction per time unit is depicted graphically and a slope calculation is carried out in the visually linear region of the reaction.
Regarding `c1cnn(-c2ccnc3ncnn23)c1` [Compound A2, 7-pyrazol-1-yl-[1,2,4]triazolo[1,5-a]pyrimidine], the IC50 (in general, the concentration needed to halve the response being measured) is over 10000 nM. In the case of `c1cc(OC[C@H]2CCCN2c2ccnc3ncnn23)c2cccnc2c1` [Compound A5, 5-((R)-1-[1,2,4]triazolo[1,5-a]pyrimidin-7-ylpyrrolidin-2-ylmethoxy)quinoline], the IC50 was 10 to 1000 nM. Regarding `O=C(OC[C@H]1CCCN1c1ccnc2ncnn12)c1ccccc1I` [Compound A68, (R)-1-[1,2,4]Triazolo[1,5-a]pyrimidin-7-yl-pyrrolidin-2-ylmethyl 2-iodobenzoate], the half-inhibitory concentration (IC50) is 10 to 1000 nM. As for `O=C(OC[C@H]1CCCN1c1ccnc2ncnn12)c1ccccn1` [Compound A69, (R)-1-[1,2,4]Triazolo[1,5-a]pyrimidin-7-yl-pyrrolidin-2-ylmethyl pyridine-2-carboxylate], the IC50 was 10 to 1000 nM. The same measure, in the same setting: the figure for `O=C(OC[C@H]1CCCN1c1ccnc2ncnn12)c1cccnc1` [Compound A70] is 10 to 1000 nM; for `O=C(OC[C@H]1CCCN1c1ccnc2ncnn12)c1ccccc1` [Compound A71, (R)-1-[1,2,4]Triazolo[1,5-a]pyrimidin-7-yl-pyrrolidin-2-ylmethyl benzoate] it is 10 to 1000 nM; for `CCOc1cccc(C(=O)OC[C@H]2CCCN2c2ccnc3ncnn23)c1` [Compound A72, (R)-1-[1,2,4]Triazolo[1,5-a]pyrimidin-7-yl-pyrrolidin-2-ylmethyl 3-ethoxybenzoate] it is 10 to 1000 nM.

For the compound `O=C(OC[C@H]1CCCN1c1ccnc2ncnn12)c1cc(Cl)ccc1F` [Compound A73, (R)-1-[1,2,4]Triazolo[1,5-a]pyrimidin-7-yl-pyrrolidin-2-ylmethyl 5-chloro-2-fluorobenzoate], the IC50 was in the range of 10 to 1000 nM. With `O=C(OC[C@H]1CCCN1c1ccnc2ncnn12)c1cccc(CCl)c1` [Compound A74, (R)-1-[1,2,4]Triazolo[1,5-a]pyrimidin-7-yl-pyrrolidin-2-ylmethyl 3-chloromethylbenzoate], the IC50 lay within 10 to 1000 nM. For the compound `NCCCOC(=O)N1CCc2cccc(OC[C@H]3CCCN3c3ccnc4ncnn34)c2C1` [Compound A75], the IC50 lay within 10 to 1000 nM. For the compound `NCCCN1CCc2cccc(OC[C@H]3CCCN3c3ccnc4ncnn34)c2C1` [Compound A76], the IC50 lay in the range of 10 to 1000 nM. In the case of `O=C1c2ccccc2C(=O)N1C[C@H]1CCCN1c1ccnc2ncnn12` [Compound A78], the IC50 was in the range of 1000 to 10000 nM. Consider `N#Cc1cccc(C(=O)OC[C@H]2CCCN2c2ccnc3ncnn23)c1` [Compound A79, (R)-1-[1,2,4]Triazolo[1,5-a]pyrimidin-7-yl-pyrrolidin-2-ylmethyl 3-cyanobenzoate], for which the IC50 is 10 to 1000 nM.

In the case of `Nc1nc2nccc(N3CCC[C@@H]3COc3cccc4ccccc34)n2n1` [Compound A80], the IC50 was 1000 to 10000 nM. The same measure, in the same setting: for `COC(=O)c1ccc2[nH]c(CC3CCCN3c3ccnc4ncnn34)cc2c1` (centres unmarked) [Compound A81] the value was 10 to 1000 nM.

On to `O=C(OC[C@H]1CCCN1c1ccnc2ncnn12)c1cccc(OC(F)(F)F)c1` [Compound A82, (R)-1-[1,2,4]Triazolo[1,5-a]pyrimidin-7-yl-pyrrolidin-2-ylmethyl 3-trifluoromethoxy-benzoate], for which the IC50 lay in the range of 10 to 1000 nM.

In the case of `OC[C@H]1CCCN1c1ccnc2ncnn12` [Compound A83], the IC50 was 10 to 1000 nM. With `O=S(=O)(NC[C@H]1CCCN1c1ccnc2ncnn12)c1ccc(F)cc1` [Compound A84], the IC50 fell in the range of 1000 to 10000 nM.

Tested on in another data set: not given
Test: not given
Details: not given
As to `c1cnn(-c2ccnc3ncnn23)c1` [Compound A2, 7-pyrazol-1-yl-[1,2,4]triazolo[1,5-a]pyrimidine], the melting point (as a rule, the temperature of the solid-liquid transition) lay in the range of 191 to 193 °C. In turn, `c1cc(OC[C@H]2CCCN2c2ccnc3ncnn23)c2cccnc2c1` [Compound A5, 5-((R)-1-[1,2,4]triazolo[1,5-a]pyrimidin-7-ylpyrrolidin-2-ylmethoxy)quinoline] displayed a melting point of 93 to 95 °C.
